In the test the target is T1, P2X purinoceptor 7 (Homo sapiens, UniProt Q99572).
T1 sequence (Q99572 whole entry): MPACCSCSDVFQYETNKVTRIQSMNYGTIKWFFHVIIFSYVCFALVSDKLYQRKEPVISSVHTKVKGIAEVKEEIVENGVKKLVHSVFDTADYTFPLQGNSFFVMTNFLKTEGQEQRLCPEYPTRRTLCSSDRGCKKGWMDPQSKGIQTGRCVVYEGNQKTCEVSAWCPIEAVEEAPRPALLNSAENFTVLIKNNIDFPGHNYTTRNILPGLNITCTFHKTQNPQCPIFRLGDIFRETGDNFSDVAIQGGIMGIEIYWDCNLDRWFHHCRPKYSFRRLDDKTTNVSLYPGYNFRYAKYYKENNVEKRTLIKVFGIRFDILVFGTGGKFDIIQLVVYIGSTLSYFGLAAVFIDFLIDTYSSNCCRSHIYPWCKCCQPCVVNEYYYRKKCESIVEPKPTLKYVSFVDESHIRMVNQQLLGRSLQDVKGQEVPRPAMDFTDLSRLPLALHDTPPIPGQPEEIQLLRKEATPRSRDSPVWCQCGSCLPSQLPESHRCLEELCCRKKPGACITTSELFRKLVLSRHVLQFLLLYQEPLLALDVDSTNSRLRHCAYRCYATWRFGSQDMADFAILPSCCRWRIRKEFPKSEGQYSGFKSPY
As to the kind of experiment: Antagonist activity at P2X7 receptor (unknown origin).

With `COc1ccc(Cl)c(NC(=O)CC23CC4CC(CC(C4)C2)C3)c1`, the IC50 (read-out: pIC50 (converted)) was 63.1 nM.

In the case of `Cc1cccc(-c2nnnn2Cc2cccnc2)c1C`, the IC50 (read-out: pIC50 (converted)) was 251 nM.

`CN([C@@H](Cc1ccc(OS(=O)(=O)c2cccc3cnccc23)cc1)C(=O)N1CCN(c2ccccc2)CC1)S(=O)(=O)c1cccc2cnccc12`: where the note is “read-out: IC50”, the IC50 came out at 94.4 nM.

On to `COc1ccc(C)c(NC(=O)CC23CC4CC(CC(C4)C2)C3)c1`, for which, under “read-out: pIC50 (converted)”, the IC50 is 10 nM.

For `O=C(CN1CC(=O)N(c2ccccc2)C1=O)NCc1ccc(F)cc1Cl`, under “read-out: pIC50 (converted)”, the IC50 was over 1000 nM.

Consider `CN(CC12CC3CC(CC(C3)C1)C2)C(=O)c1ccc(Cl)cc1`, for which the IC50 (read-out: pIC50 (converted)) is 3980 nM.

Turning to `O=C(NCC12CC3CC(C1)CC(CNC(=O)c1ccc(Cl)cc1Cl)(C3)C2)c1ccc(Cl)cc1Cl`, the IC50 (read-out: pIC50 (converted)) is 126 nM.

Consider `CN([C@@H](Cc1ccc(OS(=O)(=O)c2cccc3cnccc23)cc1)C(=O)N1CCN(Cc2ccccc2)CC1)S(=O)(=O)c1cccc2cnccc12`, for which the IC50 (read-out: IC50) worked out at 65.3 nM.

Take `Clc1cccc(-n2ncnc2NCc2cccnc2)c1Cl`: the IC50 (read-out: pIC50 (converted)) is 9.12 nM.

As to `Cc1nn(-c2ccccc2)c(C)c1Cc1nnc(Cc2ccc(Cl)cc2Cl)o1`, under “read-out: pIC50 (converted)”, the IC50 was over 1000 nM.

Regarding `COc1cccc(NC(=O)CC23CC4CC(CC(C4)C2)C3)c1C`, the IC50 (read-out: pIC50 (converted)) was 5.01 nM.

With `COc1cccc(-c2nnnn2Cc2cccnc2)c1OC`, the IC50 (read-out: pIC50 (converted)) was 3980 nM.

On to `O=C(NCC12CC3CC(CC(C3)C1)C2)c1ccc(Cl)cc1Cl`, for which, where the note is “read-out: pIC50 (converted)”, the IC50 is 398 nM.

Regarding `CN(Cc1ccc(Cl)cc1)CC12CC3CC(CC(C3)C1)C2`, the IC50 (read-out: pIC50 (converted)) was 3980 nM.

Consider `O=C(CC12CC3CC(CC(C3)C1)C2)Nc1ccc(Cl)cc1`, for which the IC50 (read-out: pIC50 (converted)) was 501 nM.

On to `O=C(NCC12CC3CC(CC(C3)C1)C2)c1ccccc1Cl`, for which the IC50 (read-out: pIC50 (converted)) was 7.94 nM.

Regarding `CC(NC(=O)c1ccc(Cl)cc1)C12CC3CC(CC(C3)C1)C2` (stereo not drawn), the IC50 (read-out: pIC50 (converted)) is 398 nM.

As to `Cc1nn(-c2ccccc2)c(C)c1NC(=O)NCc1ccc(F)cc1Cl`, under “read-out: pIC50 (converted)”, the IC50 is over 1000 nM.

(Values after ChEMBL document CHEMBL3108702, “Purinergic receptor P2X₇: a novel target for anti-inflammatory therapy” (Bioorg Med Chem, 2014).)
